Measurements reported in US20090291939A1, “Treating Alcohol And Or Substance Abuse By Antagonizing Alpha 2 Adrenergic Receptors With Weak Dopamine Blocking” (priority 2002, published 2009).
Entries after “also recorded” stand apart in the source; their conditions may differ.

How the values were obtained:
Syrian golden hamsters = assay: Free choice alcohol drinking in Syrian golden hamsters with daily s.c. drug treatment; conditions: for body weight, change from baseline: 9-day treatment period; for alcohol consumption during post-hoc period: post-hoc: CLOZ animals 2 days lower dose then 22 days vehicle, HAL animals 0.6, 0.8, then 1 mg/kg over 15 days
golden hamster = conditions: cited from earlier work
animals = conditions: cited from earlier work

## CN1CCN(C2=Nc3cc(Cl)ccc3Nc3ccccc32)CC1 [CLOZ, clozapine]
Syrian golden hamsters
  body weight, change from baseline: lost weight
Syrian golden hamsters; first CLOZ injection 2 mg/kg s.c., treatment day #2
  time to onset of decrease in alcohol drinking after first injection: ≤ 27 h
Syrian golden hamsters; treatment period, by day #6, after four days of 4 mg/kg/day CLOZ s.c.
  alcohol consumption, % of baseline: 10 % of baseline

## O=c1c(-c2ccc(O)cc2)coc2cc(O[C@@H]3O[C@H](CO)[C@@H](O)[C@H](O)[C@H]3O)ccc12 [Daidzin]
Golden hamster
  alcohol drinking: decreases alcohol drinking

## O=C(CCCN1CCC(O)(c2ccc(Cl)cc2)CC1)c1ccc(F)cc1 [HAL, haloperidol]
Syrian golden hamsters
  body weight, change from baseline: stayed the same
  alcohol consumption during post-hoc period: did not change; also recorded: no change in alcohol drinking
Syrian golden hamsters; 9-day treatment: CLOZ 2 then 4 mg/kg, HAL 0.2 then 0.4 mg/kg, s.c. daily
  alcohol drinking, change during treatment period: unchanged
Syrian golden hamsters; HAL dose ranging from 0.2 mg/kg to 1 mg/kg, including 11 days at highest dose
  alcohol use over full 24 days of treatment: no evidence of a decrease in alcohol use
Syrian golden hamsters; listed as haloperidol
  alcohol consumption during post-hoc period: no decrease in drinking

## C=CCN1CC[C@]23c4c5ccc(O)c4O[C@H]2C(=O)CC[C@@]3(O)[C@H]1C5 [naloxone]
animals
  alcohol consumption: inhibit alcohol consumption

## O=C1CC[C@@]2(O)[C@H]3Cc4ccc(O)c5c4[C@@]2(CCN3CC2CC2)[C@H]1O5 [naltrexone]
animals
  alcohol consumption: inhibit alcohol consumption

## CN[C@H]1CC[C@@H](c2ccc(Cl)c(Cl)c2)c2ccccc21 [sertraline]
animals
  alcohol consumption: inhibit alcohol consumption
